Assays:
[1] = system: primary MLL-rearranged AML; assay: Primary patient derived xenograft, hCD45 staining of bone marrow; format: in vivo, NSG mice; conditions: 25 mg/kg daily intraperitoneal, 21 days
Experimental: Mouse studies. All mouse experiments were carried out in accordance with institutional animal protocols. Two hundred thousand primary AML MLL-rearranged leukemia cells were suspended in […] of PBS and transplanted via tail vein injection into 8-week-old sublethally irradiation (200 rad) female NOD.Cg-Prkdc(scid)Il2rg(tm1Wjl)/SzJ mice (The Jackson Laboratory, Bar Harbor, Me., USA). Recipient mice were maintained on antibiotic supplementation in chow (0.025% trimethoprim, 0.124% sulfamethoxazole, Sulfatrim). Three days after transplant, mice were randomly assigned to experimental treatment groups. […]

MV411 cells [2] = assay: Flow cytometric analysis of apoptosis (Annexin-V); format: cell-based, human; conditions: 20 μM, 24 hours
Experimental: Flow cytometric analysis of Apoptosis. Cells were resuspended to a concentration of 1×10^6 cells were plated in triplicate in a 12-well tissue culture plate. For assessment of annexin V staining, cells were washed with PBS and then resuspended in PBS with Annexin V-APC (BioLegend) and propidium iodide at a dilution of 1:1000. For intracellular detection of cleaved caspase 3, cells were fixed and permeabilized using the BD Cytofix/Cytoperm Fixation/Permeabilization solution according to the manufacturer's instructions (BD Biosciences. Cells were then stained using the Alexa Fluor 647-conjugated anti-active caspase-3 (BD Biosciences) at a dilution of 1:50. Cells were incubated for 30 minutes room temperature in the dark, washed, and then analyzed using the BD LSRFortessa cell analyzer.

MYB:CBP complex = molecular target: T1, MYB:CBP complex (Homo sapiens, UniProt Q92793); assay: Dissociation of MYB:CBP complex in AML cells (co-immunoprecipitation); format: cell-based
T1 construct: endogenous in cells; host or cells: MV411 human AML cells
Experimental: Co-immunoprecipitation analysis. 7.5 μg of indicated antibodies were conjugated to 1 mg M-270 Epoxy-coated magnetic beads (Invitrogen) according to manufacturer's instructions. 1×10^7 MV411 cells were collected and washed in cold PBS. Washed cell pellets were resuspended in 350 μL cold lysis buffer (50 mM Tris-HCl pH 7.4, 150 mM NaCl, 1 mM EDTA, 1 mM DTT, 0.5% Triton X-100, supplemented with protease inhibitors described above) and incubated on ice for 10 min. Cells were mechanically disrupted using the Covaris […] adaptive focused sonicator at 50 W peak power, 10% duty cycle, 200 cycles per burst at 4° C. for 300 sec. Lysate was clarified by centrifugation for 15 min at 18,000×g at 4° C. Supernatant (cleared lysate) was diluted in 1.05 mL dilution buffer (50 mM Tris-HCl, 150 mM NaCl, 1 mM EDTA, 1 mM DTT, 10% glycerol, supplemented with protease inhibitors described above for a total volume of 1.4 mL. Diluted lysate was added to 1 mg beads, and immunoprecipitation proceeded for 3 h at 4° C. with rotation. Beads were then washed with lysis buffer twice. Proteins were eluted in 20 μL EB buffer (Invitrogen) for 5 min at room temperature, and eluate was neutralized with 2 μL 1M Tris pH 11. Samples were prepared for Western blot by addition of Laemmli buffer with 50 mM DTT and incubation at 95° C. for 5 min. Presence of MYB and CBP was identified by Western blot as described above.

MV411 cells [3] = assay: CellTiter Glo viability of MV411 cells with ectopic BCL2 expression; format: cell-based, human; conditions: MV411 cells with MSCV-Ires-GFP BCL2 vector
MOLM13 cells = assay: Giemsa staining of cells for morphology; format: cell-based, human; conditions: 20 μM, 6 hours
Experimental: Giemsa staining of cells for Morphology. MOLM13 cells were resupended to a concentration of 1×10^6 cells in 1 milliliter of PBS. Using the benchtop Cytospin Centrifuge instrument (ThermoFisher Scientific), 200 uL of the cell suspension was applied white clipped Cytofunnels (ThermoFisher Scientific) to glass microscope slides (2×10^5 cells/slide). Dip Quick Stain (J-322, Jorgensen Laboratories, Inc) was used for per manufacturer's protocol for the polychromic stain of cells.

T1 sequence (Q92793 2-2442 limits assumed, one chain of several): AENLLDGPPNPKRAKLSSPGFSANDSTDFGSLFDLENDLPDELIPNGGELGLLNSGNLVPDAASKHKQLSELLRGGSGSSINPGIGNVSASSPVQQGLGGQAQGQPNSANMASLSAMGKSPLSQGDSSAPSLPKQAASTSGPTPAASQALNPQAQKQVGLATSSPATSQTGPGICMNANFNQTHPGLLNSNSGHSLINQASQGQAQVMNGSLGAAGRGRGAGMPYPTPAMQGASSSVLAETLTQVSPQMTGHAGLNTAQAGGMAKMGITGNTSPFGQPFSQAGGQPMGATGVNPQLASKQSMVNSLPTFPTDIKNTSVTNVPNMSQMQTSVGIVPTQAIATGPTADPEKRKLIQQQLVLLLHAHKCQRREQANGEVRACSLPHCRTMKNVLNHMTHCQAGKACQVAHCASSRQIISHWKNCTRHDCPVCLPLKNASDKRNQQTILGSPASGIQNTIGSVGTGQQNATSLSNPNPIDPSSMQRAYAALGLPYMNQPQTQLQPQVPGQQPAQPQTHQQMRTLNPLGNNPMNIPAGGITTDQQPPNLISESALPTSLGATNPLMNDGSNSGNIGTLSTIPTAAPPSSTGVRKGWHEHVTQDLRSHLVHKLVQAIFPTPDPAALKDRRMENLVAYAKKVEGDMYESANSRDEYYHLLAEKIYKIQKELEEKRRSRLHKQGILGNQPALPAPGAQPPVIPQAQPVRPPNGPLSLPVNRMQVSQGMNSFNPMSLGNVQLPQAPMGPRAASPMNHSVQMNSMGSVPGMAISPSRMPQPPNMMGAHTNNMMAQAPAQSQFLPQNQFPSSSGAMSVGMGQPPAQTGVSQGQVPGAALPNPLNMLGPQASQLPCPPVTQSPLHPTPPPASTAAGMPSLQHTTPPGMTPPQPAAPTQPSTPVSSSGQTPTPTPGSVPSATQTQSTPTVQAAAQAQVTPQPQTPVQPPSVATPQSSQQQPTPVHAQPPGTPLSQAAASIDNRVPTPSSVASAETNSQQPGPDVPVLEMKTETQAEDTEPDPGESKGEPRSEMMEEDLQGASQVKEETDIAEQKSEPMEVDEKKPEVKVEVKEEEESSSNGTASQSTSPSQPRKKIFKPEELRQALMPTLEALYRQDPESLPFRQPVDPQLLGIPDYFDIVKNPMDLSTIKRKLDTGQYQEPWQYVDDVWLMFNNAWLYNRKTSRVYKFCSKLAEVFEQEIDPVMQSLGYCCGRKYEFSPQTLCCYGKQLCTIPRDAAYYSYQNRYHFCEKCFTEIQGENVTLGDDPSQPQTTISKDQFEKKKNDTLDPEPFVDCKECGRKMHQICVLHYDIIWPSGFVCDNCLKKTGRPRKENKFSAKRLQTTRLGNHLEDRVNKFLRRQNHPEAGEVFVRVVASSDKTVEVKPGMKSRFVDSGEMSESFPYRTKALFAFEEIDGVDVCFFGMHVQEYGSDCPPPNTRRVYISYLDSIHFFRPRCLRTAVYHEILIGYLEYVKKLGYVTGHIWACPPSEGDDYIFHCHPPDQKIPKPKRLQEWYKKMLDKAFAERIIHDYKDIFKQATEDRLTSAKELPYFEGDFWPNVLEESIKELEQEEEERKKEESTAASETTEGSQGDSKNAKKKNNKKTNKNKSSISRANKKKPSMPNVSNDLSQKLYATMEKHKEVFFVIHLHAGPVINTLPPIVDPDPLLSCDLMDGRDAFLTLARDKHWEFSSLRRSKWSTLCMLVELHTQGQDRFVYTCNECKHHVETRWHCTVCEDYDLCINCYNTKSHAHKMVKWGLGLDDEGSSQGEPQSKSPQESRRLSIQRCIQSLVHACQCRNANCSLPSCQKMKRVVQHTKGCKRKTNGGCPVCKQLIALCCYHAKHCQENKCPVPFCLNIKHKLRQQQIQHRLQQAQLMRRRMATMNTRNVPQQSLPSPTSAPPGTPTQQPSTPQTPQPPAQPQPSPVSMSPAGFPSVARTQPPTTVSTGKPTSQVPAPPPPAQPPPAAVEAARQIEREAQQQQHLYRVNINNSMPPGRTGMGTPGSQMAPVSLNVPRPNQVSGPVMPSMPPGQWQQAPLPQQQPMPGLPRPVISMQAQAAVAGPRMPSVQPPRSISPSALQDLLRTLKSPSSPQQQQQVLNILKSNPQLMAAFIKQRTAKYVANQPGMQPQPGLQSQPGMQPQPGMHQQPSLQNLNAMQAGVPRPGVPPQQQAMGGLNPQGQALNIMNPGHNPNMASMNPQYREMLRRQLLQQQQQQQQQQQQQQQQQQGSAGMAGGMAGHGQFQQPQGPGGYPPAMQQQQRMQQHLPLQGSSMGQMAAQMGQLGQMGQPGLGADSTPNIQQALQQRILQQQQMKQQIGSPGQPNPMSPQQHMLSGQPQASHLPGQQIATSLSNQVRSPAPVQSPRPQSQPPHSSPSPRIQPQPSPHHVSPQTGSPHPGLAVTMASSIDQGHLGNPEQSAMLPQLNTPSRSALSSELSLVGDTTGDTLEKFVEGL

SMILES: CC[C@@H](C)[C@@H](NC(=O)[C@@H](CCCCN)NC(=O)[C@@H](CCC(=O)O)NC(=O)[C@@H](CC(C)C)NC(=O)[C@@H](CCC(=O)O)NC(=O)[C@@H](CC(C)C)NC(=O)[C@@H](CC(C)C)NC(=O)[C@@H](CC(C)C)NC(=O)[C@@H](CCSC)NC(=O)[C@@H](CO)NC(=O)[C@H](NC(=O)[C@@H](CCC(=O)O)NC(=O)[C@@H](CC(N)=O)NC(=O)[C@@H](CCC(=O)O)NC(=O)[C@@H](CC(C)C)NC(=O)[C@@H](CCCCN)NC(C)=O)[C@H](C)O)C(=O)N[C@H](CCCNC(=N)N)C(=O)N[C@H](CCCCN)C(=O)NCC(=O)NCC(=O)N[C@H](CCCNC(=N)N)C(=O)N[C@H](CCCNC(=N)N)C(=O)N[C@H](CCCNC(=N)N)C(=O)N[C@H](CCC(N)=O)C(=O)N[C@H](CCCNC(=N)N)C(=O)N[C@H](CCCNC(=N)N)C(=O)N[C@H](CCCCN)C(=O)N[C@H](CCCCN)C(=O)N[C@H](CCCNC(=N)N)C(=O)NCC(=O)N[C@H](Cc1ccc(O)cc1)C(N)=O [MYBMIM]
- leukemia burden in bone marrow (hCD45 staining) [1]: decrease in the leukemia burden
- apoptosis (Annexin-V staining) (MV411 cells [2]): induction of apoptosis
- MYB:CBP complex in cells (MYB:CBP complex): displacement and dissociation of MYB:CBP complex
- rescue of peptide-induced apoptosis by ectopic Bcl2 expression (cell viability) (MV411 cells [3]): partial rescue
- cell morphology (MOLM13 cells): induces cell death without morphologic evidence of differentiation
